In PubChem BioAssay AID1963962 (Molecular Pharmacology Branch, DTP, NCI, 2024):
Each block holds one compound with its values, some of them ahead of it.

Tested on: 967376-340-R-J2-PDC multicell spheroid viability
Assay: Anticancer human tumor 967376-340-R-J2-PDC patient-derived colon adenocarcinoma cell line growth inhibition [PI3K]
Conditions: for IC50: curve of first compound; for viability, T/C: stronger effect = lower value
Source text: Combinatorial screen of targeted agents with the PI3K inhibitors inavolisib, alpelisib, duvelisib, and copanlisib in multi-cell type tumor spheroids
A high-throughput screen of multi-cell type tumor spheroids was designed to identify active combinations of targeted small molecules and PI3K pathway inhibitors. Complex spheroids include a stromal component modeled by human endothelial cells (HUVEC) and fibroblasts modeled by human mesenchymal stem cells (MSCs). The concentration ranges selected for each drug and investigational agent were based upon clinically achievable concentrations if the clinical Cmax of the agent was known.
Compounds. The drugs and investigational agents: inavolisib (NSC800729), alpelisib (NSC765974), duvelisib (NSC772469), copanlisib (NSC816437), ipatasertib (NSC767898), afuresertib (NSC778305), talazoparib (NSC767125), sapanisertib (NSC764658), selumetinib (NSC741078), tovorafenib (DAY101, NSC766906), vemurafenib (NSC761431), ravoxertinib (NSC781343), sotorasib (NSC818433), MRTX1133 (NSC 836407), abemaciclib (NSC 768073), palbociclib (NSC758247), venetoclax (NSC 766270), SY5609 (NSC837396), enzalutamide (NSC755605), and darolutamide (NSC825331), were obtained from the National Cancer Institute (NCI) Developmental Therapeutics Program Chemical Repository. The FDA-approved anticancer drug set is available from the NCI Developmental Therapeutics Program. […] The stock solutions were prepared in dimethyl sulfoxide (DMSO, Sigma-Aldrich, St. Louis, MO, cat. D2650) at 800-fold the tested concentration and stored at -70 degrees C prior to their use. All drugs and investigational agents were tested over a range starting from a high concentration at or near the clinical Cmax and decreasing in half-log increments. If the clinical Cmax for an agent had not been determined, the highest concentration tested was 10 microM.
Cell Culture. All cells were maintained in an incubator at 37 degrees C and 5% CO2 with 95% humidity. The PDC lines were cultured according to standard operating procedures established by the NCI PDMR (https://pdmr.cancer.gov/sops/default.htm). All PDCs were thawed and cultured in Matrigel-coated flasks prepared with a working solution of 1X Ham's F-12 nutrient mix, without supplementation (Invitrogen, Waltham, MA, cat. 11765054), 100 U/mL penicillin-streptomycin (Invitrogen, cat. 15140122), and 2.5% Matrigel (Corning Inc., Corning, NY, cat. 354248) for the first three passages. The 354836-022-R-J1-PDC, 475296-252-R-J1-PDC, and 997726-040-R-J2-PDC lines were cultured in 6A media, which includes advanced DMEM/F-12 (Thermo Fisher Scientific, cat. 12634028), 10 mM HEPES (Thermo Fisher Scientific, cat. 15630080), 1X GlutaMAX supplement (Thermo Fisher Scientific, cat. 35050061), 0.1 mg/mL primocin (InvivoGen, San Diego, CA, cat. ant-pm-2), 10% defined fetal bovine serum, heat inactivated (HyClone Laboratories Inc., Logan, UT, cat. SH30070.03HI), 50% L-WRN conditioned media (ATCC, cat. CRL-3276), 1.25 mM N-Acetyl-L-cysteine (Sigma-Aldrich, cat. A9165), 10 mM nicotinamide (Sigma-Aldrich, cat. N0636), 1X B-27 supplement (Thermo Fisher Scientific, cat. 17504044), 1X N-2 supplement (Thermo Fisher Scientific, cat. 17502048), and 10 microM Y-27632 dihydrochloride (Tocris Bioscience, Bristol, United Kingdom, cat. 1254). The 624824-186-R-J2-PDC line was cultured in 6C/Colon 1B media, which includes all 6A media components plus 50 ng/mL human EGF recombinant protein (Thermo Fisher Scientific, cat. PHG0311). […]

[1] = second compound 0.0316 µM, first compound 0.0316 µM
[2] = second compound 0.0316 µM, first compound 0.1 µM
[3] = second compound 0.0316 µM, first compound 0.316 µM
[4] = second compound 0.0316 µM, first compound 1 µM
[5] = second compound 0.0316 µM, first compound 3.16 µM
[6] = second compound 0.0316 µM, first compound 10 µM
[7] = second compound 0.1 µM, first compound 0.0316 µM
[8] = second compound 0.1 µM, first compound 0.1 µM
[9] = second compound 0.1 µM, first compound 0.316 µM
[10] = second compound 0.1 µM, first compound 1 µM
[11] = second compound 0.1 µM, first compound 3.16 µM
[12] = second compound 0.1 µM, first compound 10 µM
[13] = second compound 0.316 µM, first compound 0.0316 µM
[14] = second compound 0.316 µM, first compound 0.1 µM
[15] = second compound 0.316 µM, first compound 0.316 µM
[16] = second compound 0.316 µM, first compound 1 µM
[17] = second compound 0.316 µM, first compound 3.16 µM
[18] = second compound 0.316 µM, first compound 10 µM
[19] = second compound 1 µM, first compound 0.0316 µM
[20] = second compound 1 µM, first compound 0.1 µM
[21] = second compound 1 µM, first compound 0.316 µM
[22] = second compound 1 µM, first compound 1 µM
[23] = second compound 1 µM, first compound 3.16 µM
[24] = second compound 1 µM, first compound 10 µM
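Also: spheroids exposed to agents for 7 days before read-out.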
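For viability, T/C in this document: luminescence used as surrogate of cell viability.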

IC50 (second compound 0.0316 µM): > 10 µM
IC50 (second compound 0.1 µM): 8.83 µM
IC50 (second compound 0.316 µM): 8.52 µM
IC50 (second compound 1 µM): > 10 µM
IC50 (second compound 3.16 µM): 4.67 µM
IC50 (second compound 10 µM): 2.63 µM
Compound: CC1(C)CCC(CN2CCN(c3ccc(C(=O)NS(=O)(=O)c4ccc(NCC5CCOCC5)c([N+](=O)[O-])c4)c(Oc4cnc5[nH]ccc5c4)c3)CC2)=C(c2ccc(Cl)cc2)C1 + Cc1nc(NC(=O)N2CCCC2C(N)=O)sc1-c1ccnc(C(C)(C)C(F)(F)F)c1
viability, T/C [1]: 103%
viability, T/C [2]: 91.3%
viability, T/C [3]: 88.8%
viability, T/C [4]: 86%
viability, T/C [5]: 104%
viability, T/C [6]: 55.1%
viability, T/C [7]: 88.9%
viability, T/C [8]: 83.6%
viability, T/C [9]: 86.4%
viability, T/C [10]: 86.8%
viability, T/C [11]: 77.8%
viability, T/C [12]: 46.5%
viability, T/C [13]: 88.2%
viability, T/C [14]: 76.8%
viability, T/C [15]: 73%
viability, T/C [16]: 66.1%
viability, T/C [17]: 75.9%
viability, T/C [18]: 46%
viability, T/C [19]: 86.1%
viability, T/C [20]: 73.3%
viability, T/C [21]: 72.1%
viability, T/C [22]: 61.5%
viability, T/C [23]: 69.2%
viability, T/C [24]: 52.3%
viability, T/C (second compound 3.16 µM, first compound 0.0316 µM): 57.1%
viability, T/C (second compound 3.16 µM, first compound 0.1 µM): 71.8%
viability, T/C (second compound 3.16 µM, first compound 0.316 µM): 63%
viability, T/C (second compound 3.16 µM, first compound 1 µM): 60.5%
viability, T/C (second compound 3.16 µM, first compound 3.16 µM): 59%
viability, T/C (second compound 3.16 µM, first compound 10 µM): 33.4%
viability, T/C (second compound 10 µM, first compound 0.0316 µM): 63.9%
viability, T/C (second compound 10 µM, first compound 0.1 µM): 50.3%
viability, T/C (second compound 10 µM, first compound 0.316 µM): 62.7%
viability, T/C (second compound 10 µM, first compound 1 µM): 48.8%
viability, T/C (second compound 10 µM, first compound 3.16 µM): 53%
viability, T/C (second compound 10 µM, first compound 10 µM): 38.6%

IC50 (second compound 0.00316 µM): > 10 µM
IC50 (second compound 0.01 µM): > 10 µM
IC50 (second compound 0.0316 µM): > 10 µM
IC50 (second compound 0.1 µM): > 10 µM
IC50 (second compound 0.316 µM): 0.388 µM
IC50 (second compound 1 µM): < 0.0316 µM
Compound: CNC(=O)c1ccc(N2C(=S)N(c3ccc(C#N)c(C(F)(F)F)c3)C(=O)C2(C)C)cc1F + COc1c(OCCCN2CCOCC2)ccc2c3n(c(=NC(=O)c4cnc(N)nc4)nc12)CCN3
viability, T/C (second compound 0.00316 µM, first compound 0.0316 µM): 92%
viability, T/C (second compound 0.00316 µM, first compound 0.1 µM): 90%
viability, T/C (second compound 0.00316 µM, first compound 0.316 µM): 73.3%
viability, T/C (second compound 0.00316 µM, first compound 1 µM): 93%
viability, T/C (second compound 0.00316 µM, first compound 3.16 µM): 113%
viability, T/C (second compound 0.00316 µM, first compound 10 µM): 102%
viability, T/C (second compound 0.01 µM, first compound 0.0316 µM): 90%
viability, T/C (second compound 0.01 µM, first compound 0.1 µM): 82.7%
viability, T/C (second compound 0.01 µM, first compound 0.316 µM): 65.7%
viability, T/C (second compound 0.01 µM, first compound 1 µM): 87.3%
viability, T/C (second compound 0.01 µM, first compound 3.16 µM): 105%
viability, T/C (second compound 0.01 µM, first compound 10 µM): 120%
viability, T/C [1]: 78%
viability, T/C [2]: 64.9%
viability, T/C [3]: 64.5%
viability, T/C [4]: 60.9%
viability, T/C [5]: 79.9%
viability, T/C [6]: 66%
viability, T/C [7]: 65.7%
viability, T/C [8]: 64.3%
viability, T/C [9]: 64.5%
viability, T/C [10]: 51%
viability, T/C [11]: 53.3%
viability, T/C [12]: 64.6%
viability, T/C [13]: 50.3%
viability, T/C [14]: 50.3%
viability, T/C [15]: 54.5%
viability, T/C [16]: 34.8%
viability, T/C [17]: 37.5%
viability, T/C [18]: 54.2%
viability, T/C [19]: 35%
viability, T/C [20]: 36.5%
viability, T/C [21]: 39.8%
viability, T/C [22]: 34.6%
viability, T/C [23]: 36.6%
viability, T/C [24]: 28.1%
